Measured values as given in ChEMBL document CHEMBL3608264, “Novel antibacterial active quinolone-fluoroquinolone conjugates and 2D-QSAR studies” (2015).
Converted amounts (≈) assume the structure as drawn.

Columns and labels:
Salmonella typhimurium = experiment: Antimicrobial activity against Salmonella typhimurium ATCC 19430 incubated for 18 hrs by agar dilution method; assay type: functional, Salmonella enterica subsp. enterica serovar Typhimurium; conditions: Salmonella enterica, ATCC 19430, 18 h
Staphylococcus aureus = experiment: Antimicrobial activity against Staphylococcus aureus ATCC 25923 incubated for 18 hrs by agar dilution method; assay type: functional; conditions: ATCC 25923, 18 h
Pseudomonas aeruginosa = experiment: Antimicrobial activity against Pseudomonas aeruginosa ATCC 27853 incubated for 18 hrs by agar dilution method; assay type: functional; conditions: ATCC 27853, 18 h
Streptococcus pyogenes = experiment: Antimicrobial activity against Streptococcus pyogenes ATCC 19615 incubated for 18 hrs by agar dilution method; assay type: functional; conditions: ATCC 19615, 18 h

CCn1cc(C(=O)NCC(=O)N2CCN(c3cc4c(cc3F)c(=O)c(C(=O)O)cn4C3CC3)CC2)c(=O)c2cc3c(cc21)OCO3
MIC (Salmonella typhimurium): 7.6 µM (≈ 4.8 µg/mL)

CCn1cc(C(=O)NCCC(=O)N2CCN(c3cc4c(cc3F)c(=O)c(C(=O)O)cn4C3CC3)CC2)c(=O)c2cc3c(cc21)OCO3
MIC (Staphylococcus aureus): 1940 µM (≈ 1250 µg/mL)
MIC (Salmonella typhimurium): 7.4 µM (≈ 4.78 µg/mL)
MIC (Pseudomonas aeruginosa): 1940 µM (≈ 1250 µg/mL)
MIC (Streptococcus pyogenes): 1940 µM (≈ 1250 µg/mL)

CCn1cc(C(=O)NCCCC(=O)N2CCN(c3cc4c(cc3F)c(=O)c(C(=O)O)cn4C3CC3)CC2)c(=O)c2cc3c(cc21)OCO3
MIC (Staphylococcus aureus): 1890 µM (≈ 1250 µg/mL)
MIC (Salmonella typhimurium): 59.1 µM (≈ 39 µg/mL)
MIC (Pseudomonas aeruginosa): 1890 µM (≈ 1250 µg/mL)
MIC (Streptococcus pyogenes): 1890 µM (≈ 1250 µg/mL)

CC[C@H](C)[C@H](NC(=O)c1cn(CC)c2cc3c(cc2c1=O)OCO3)C(=O)N1CCN(c2cc3c(cc2F)c(=O)c(C(=O)O)cn3C2CC2)CC1
MIC (Staphylococcus aureus): 454 µM (≈ 313 µg/mL)
MIC (Salmonella typhimurium): 909 µM (≈ 625 µg/mL)
MIC (Pseudomonas aeruginosa): 1820 µM (≈ 1250 µg/mL)
MIC (Streptococcus pyogenes): 1820 µM (≈ 1250 µg/mL)

CCn1cc(C(=O)N[C@@H](Cc2ccccc2)C(=O)N2CCN(c3cc4c(cc3F)c(=O)c(C(=O)O)cn4C3CC3)CC2)c(=O)c2cc3c(cc21)OCO3
MIC (Staphylococcus aureus): 1730 µM (≈ 1250 µg/mL)
MIC (Salmonella typhimurium): 433 µM (≈ 313 µg/mL)
MIC (Pseudomonas aeruginosa): 1730 µM (≈ 1250 µg/mL)
MIC (Streptococcus pyogenes): 1730 µM (≈ 1250 µg/mL)

CCn1cc(C(=O)N[C@@H](Cc2c[nH]c3ccccc23)C(=O)N2CCN(c3cc4c(cc3F)c(=O)c(C(=O)O)cn4C3CC3)CC2)c(=O)c2cc3c(cc21)OCO3
MIC (Staphylococcus aureus): 51.3 µM (≈ 39 µg/mL)
MIC (Salmonella typhimurium): 25.6 µM (≈ 19.5 µg/mL)
MIC (Pseudomonas aeruginosa): 411 µM (≈ 313 µg/mL)
MIC (Streptococcus pyogenes): 411 µM (≈ 313 µg/mL)

CCn1cc(C(=O)O)c(=O)c2cc(F)c(N3CCN(C(=O)CNC(=O)c4cn(CC)c5nc(C)ccc5c4=O)CC3)cc21
MIC (Staphylococcus aureus): 33 µM (≈ 19.5 µg/mL)
MIC (Salmonella typhimurium): 2120 µM (≈ 1250 µg/mL)

CCn1cc(C(=O)O)c(=O)c2cc(F)c(N3CCN(C(=O)CCNC(=O)c4cn(CC)c5nc(C)ccc5c4=O)CC3)cc21
MIC (Staphylococcus aureus): 2070 µM (≈ 1250 µg/mL)
MIC (Salmonella typhimurium): 2070 µM (≈ 1250 µg/mL)
MIC (Pseudomonas aeruginosa): 2070 µM (≈ 1250 µg/mL)
MIC (Streptococcus pyogenes): 2070 µM (≈ 1250 µg/mL)

CCn1cc(C(=O)O)c(=O)c2cc(F)c(N3CCN(C(=O)CCCNC(=O)c4cn(CC)c5nc(C)ccc5c4=O)CC3)cc21
MIC (Staphylococcus aureus): 505 µM (≈ 312 µg/mL)
MIC (Salmonella typhimurium): 505 µM (≈ 312 µg/mL)
MIC (Pseudomonas aeruginosa): 505 µM (≈ 312 µg/mL)
MIC (Streptococcus pyogenes): 1010 µM (≈ 625 µg/mL)

CC[C@H](C)[C@H](NC(=O)c1cn(CC)c2nc(C)ccc2c1=O)C(=O)N1CCN(c2cc3c(cc2F)c(=O)c(C(=O)O)cn3CC)CC1
MIC (Staphylococcus aureus): 1930 µM (≈ 1250 µg/mL)
MIC (Salmonella typhimurium): 1930 µM (≈ 1250 µg/mL)
MIC (Pseudomonas aeruginosa): 1930 µM (≈ 1250 µg/mL)
MIC (Streptococcus pyogenes): 1930 µM (≈ 1250 µg/mL)

CCn1cc(C(=O)O)c(=O)c2cc(F)c(N3CCN(C(=O)[C@H](Cc4ccccc4)NC(=O)c4cn(CC)c5nc(C)ccc5c4=O)CC3)cc21
MIC (Staphylococcus aureus): 28.6 µM (≈ 19.5 µg/mL)
MIC (Salmonella typhimurium): 115 µM (≈ 78.1 µg/mL)
MIC (Pseudomonas aeruginosa): 918 µM (≈ 625 µg/mL)
MIC (Streptococcus pyogenes): 459 µM (≈ 313 µg/mL)

CCn1cc(C(=O)O)c(=O)c2cc(F)c(N3CCN(C(=O)[C@H](Cc4c[nH]c5ccccc45)NC(=O)c4cn(CC)c5nc(C)ccc5c4=O)CC3)cc21
MIC (Staphylococcus aureus): 1740 µM (≈ 1250 µg/mL)
MIC (Salmonella typhimurium): 868 µM (≈ 625 µg/mL)
MIC (Pseudomonas aeruginosa): 1740 µM (≈ 1250 µg/mL)
MIC (Streptococcus pyogenes): 1740 µM (≈ 1250 µg/mL)

CCn1cc(C(=O)O)c(=O)c2cc(F)c(N3CCN(C(=O)CNC(=O)c4cn(CC)c5cc6c(cc5c4=O)OCO6)CC3)cc21
MIC (Salmonella typhimurium): 2020 µM (≈ 1250 µg/mL)

CCn1cc(C(=O)O)c(=O)c2cc(F)c(N3CCN(C(=O)CCNC(=O)c4cn(CC)c5cc6c(cc5c4=O)OCO6)CC3)cc21
MIC (Staphylococcus aureus): 30.8 µM (≈ 19.5 µg/mL)
MIC (Salmonella typhimurium): 61.6 µM (≈ 39 µg/mL)
MIC (Pseudomonas aeruginosa): 493 µM (≈ 313 µg/mL)
MIC (Streptococcus pyogenes): 247 µM (≈ 156 µg/mL)

CCn1cc(C(=O)O)c(=O)c2cc(F)c(N3CCN(C(=O)CCCNC(=O)c4cn(CC)c5cc6c(cc5c4=O)OCO6)CC3)cc21
MIC (Staphylococcus aureus): 482 µM (≈ 312 µg/mL)
MIC (Streptococcus pyogenes): 965 µM (≈ 625 µg/mL)

CC[C@H](C)[C@H](NC(=O)c1cn(CC)c2cc3c(cc2c1=O)OCO3)C(=O)N1CCN(c2cc3c(cc2F)c(=O)c(C(=O)O)cn3CC)CC1
MIC (Staphylococcus aureus): 1850 µM (≈ 1250 µg/mL)
MIC (Salmonella typhimurium): 1850 µM (≈ 1250 µg/mL)
MIC (Pseudomonas aeruginosa): 462 µM (≈ 313 µg/mL)
MIC (Streptococcus pyogenes): 1850 µM (≈ 1250 µg/mL)

CCn1cc(C(=O)O)c(=O)c2cc(F)c(N3CCN(C(=O)[C@H](Cc4ccccc4)NC(=O)c4cn(CC)c5cc6c(cc5c4=O)OCO6)CC3)cc21
MIC (Staphylococcus aureus): 1760 µM (≈ 1250 µg/mL)
MIC (Salmonella typhimurium): 1760 µM (≈ 1250 µg/mL)
MIC (Pseudomonas aeruginosa): 1760 µM (≈ 1250 µg/mL)
MIC (Streptococcus pyogenes): 1760 µM (≈ 1250 µg/mL)

CCn1cc(C(=O)O)c(=O)c2cc(F)c(N3CCN(C(=O)[C@H](Cc4c[nH]c5ccccc45)NC(=O)c4cn(CC)c5cc6c(cc5c4=O)OCO6)CC3)cc21
MIC (Staphylococcus aureus): 1670 µM (≈ 1250 µg/mL)
MIC (Salmonella typhimurium): 1670 µM (≈ 1250 µg/mL)
MIC (Pseudomonas aeruginosa): 1670 µM (≈ 1250 µg/mL)
MIC (Streptococcus pyogenes): 1670 µM (≈ 1250 µg/mL)

CCn1cc(C(=O)NCC(=O)N2CCN(c3cc4c(cc3F)c(=O)c(C(=O)O)cn4C3CC3)CC2)c(=O)c2ccc(C)nc21
MIC (Salmonella typhimurium): 64.7 µM (≈ 39 µg/mL)

CCn1cc(C(=O)NCCC(=O)N2CCN(c3cc4c(cc3F)c(=O)c(C(=O)O)cn4C3CC3)CC2)c(=O)c2ccc(C)nc21
MIC (Staphylococcus aureus): 1010 µM (≈ 625 µg/mL)
MIC (Salmonella typhimurium): 15.7 µM (≈ 9.68 µg/mL)
MIC (Pseudomonas aeruginosa): 2030 µM (≈ 1250 µg/mL)
MIC (Streptococcus pyogenes): 7.8 µM (≈ 4.81 µg/mL)

CC[C@H](C)[C@H](NC(=O)c1cn(CC)c2nc(C)ccc2c1=O)C(=O)N1CCN(c2cc3c(cc2F)c(=O)c(C(=O)O)cn3C2CC2)CC1
MIC (Staphylococcus aureus): 1900 µM (≈ 1250 µg/mL)
MIC (Salmonella typhimurium): 1900 µM (≈ 1250 µg/mL)
MIC (Pseudomonas aeruginosa): 1900 µM (≈ 1250 µg/mL)
MIC (Streptococcus pyogenes): 1900 µM (≈ 1250 µg/mL)

CCn1cc(C(=O)N[C@@H](Cc2ccccc2)C(=O)N2CCN(c3cc4c(cc3F)c(=O)c(C(=O)O)cn4C3CC3)CC2)c(=O)c2ccc(C)nc21
MIC (Staphylococcus aureus): 1800 µM (≈ 1250 µg/mL)
MIC (Salmonella typhimurium): 1800 µM (≈ 1250 µg/mL)
MIC (Pseudomonas aeruginosa): 1800 µM (≈ 1250 µg/mL)
MIC (Streptococcus pyogenes): 1800 µM (≈ 1250 µg/mL)

CCn1cc(C(=O)N[C@@H](Cc2c[nH]c3ccccc23)C(=O)N2CCN(c3cc4c(cc3F)c(=O)c(C(=O)O)cn4C3CC3)CC2)c(=O)c2ccc(C)nc21
MIC (Staphylococcus aureus): 3.3 µM (≈ 2.41 µg/mL)
MIC (Salmonella typhimurium): 427 µM (≈ 312 µg/mL)
MIC (Pseudomonas aeruginosa): 1710 µM (≈ 1250 µg/mL)
MIC (Streptococcus pyogenes): 854 µM (≈ 625 µg/mL)

O=C(O)c1cn(C2CC2)c2cc(N3CCNCC3)c(F)cc2c1=O [CIPROFLOXACIN]
MIC (Staphylococcus aureus): 74.6 µM (≈ 24.7 µg/mL)
MIC (Salmonella typhimurium): 9.2 µM (≈ 3.05 µg/mL)
MIC (Pseudomonas aeruginosa): 74.6 µM (≈ 24.7 µg/mL)
MIC (Streptococcus pyogenes): 2390 µM (≈ 793 µg/mL)

CCn1cc(C(=O)O)c(=O)c2ccc(C)nc21 [NALIDIXIC ACID]
MIC (Staphylococcus aureus): 3770 µM (≈ 876 µg/mL)
MIC (Salmonella typhimurium): 7.2 µM (≈ 1.67 µg/mL)
MIC (Pseudomonas aeruginosa): 14.5 µM (≈ 3.37 µg/mL)
MIC (Streptococcus pyogenes): 3770 µM (≈ 876 µg/mL)

CCn1cc(C(=O)O)c(=O)c2cc(F)c(N3CCNCC3)cc21 [NORFLOXACIN]
MIC (Staphylococcus aureus): 1350 µM (≈ 430 µg/mL)
MIC (Salmonella typhimurium): 10.3 µM (≈ 3.29 µg/mL)
MIC (Pseudomonas aeruginosa): 336 µM (≈ 107 µg/mL)
MIC (Streptococcus pyogenes): 1350 µM (≈ 430 µg/mL)

CCn1cc(C(=O)O)c(=O)c2cc3c(cc21)OCO3 [OXOLINIC ACID]
MIC (Staphylococcus aureus): 3910 µM (≈ 1020 µg/mL)
MIC (Salmonella typhimurium): 7.5 µM (≈ 1.96 µg/mL)
MIC (Pseudomonas aeruginosa): 15 µM (≈ 3.92 µg/mL)
MIC (Streptococcus pyogenes): 1960 µM (≈ 511 µg/mL)
